Experimental data taken from ChEMBL document CHEMBL1121604, “Cerebrovasodilatation through selective inhibition of the enzyme carbonic anhydrase. 2. Imidazo[2,1-b]thiadiazole and imidazo[2,1-b]thiazolesulfonamides” (J Med Chem, 1980).

Tests used:
Mus musculus [1] = species on record: Mus musculus; experiment: Anticonvulsant potency in mice relative to compound UK-12130 (ED50 of compound 24/compound); assay type: functional
Mus musculus [2] = experiment: Protective dose against maximal electroshock in mice after peroral administration; assay type: functional; conditions: po
[3] = pKa of the compound was determined; assay type: physicochemical
[4] = Partition coefficient (logP); assay type: physicochemical; conditions: octanol/water

SMILES	Potency ratio (Mus musculus [1])	ED50 (Mus musculus [2])	pKa [3]	logP [4]
COc1ccc(-c2cn3nc(S(N)(=O)=O)sc3n2)cc1	<0.6	> 16 mg/kg		
Br.NS(=O)(=O)c1nn2ccnc2s1	1.4	8 mg/kg		
CC(C)(C)c1cn2nc(S(N)(=O)=O)sc2n1	3.2	2.6 mg/kg	6.94	
Br.NS(=O)(=O)c1cn2ccnc2s1	0.7	16 mg/kg		
Br.Cc1cn2cc(S(N)(=O)=O)sc2n1	1.3	6 mg/kg		
NS(=O)(=O)c1nn2cc(-c3ccc(O)cc3)nc2s1	0.9	10 mg/kg	8.16	
CC(=O)/N=c1/sc(S(N)(=O)=O)nn1C [METHAZOLAMIDE]	0.75	12 mg/kg	7.2	0.2
Br.CCc1nc2sc(S(N)(=O)=O)nn2c1C	1	8 mg/kg		
CC(C)(C)c1cn2cc(S(N)(=O)=O)sc2n1	1.7	7 mg/kg	8.37	
NS(=O)(=O)c1nn2cc(-c3cccs3)nc2s1	<0.4	> 16 mg/kg		
NS(=O)(=O)c1nn2cc(-c3ccccc3O)nc2s1	<0.6	> 16 mg/kg		
NS(=O)(=O)c1nn2cc(-c3ccccc3)nc2s1	0.6	16 mg/kg	7.12	
Br.CCc1cn2nc(S(N)(=O)=O)sc2n1	1.6	5 mg/kg		
Br.NS(=O)(=O)c1nn2cc(C34CC5CC(CC(C5)C3)C4)nc2s1	1	6 mg/kg		
CC(=O)Nc1ccc(-c2cn3nc(S(N)(=O)=O)sc3n2)cc1	<0.4	> 16 mg/kg		
Br.NS(=O)(=O)C1=NN2C(=NC3CCCCC32)S1 (configuration not stated)	<0.5	> 16 mg/kg		
CC(=O)Nc1nnc(S(N)(=O)=O)s1 [ACETAZOLAMIDE]		36 mg/kg		
Cc1ccc(-c2cn3nc(S(N)(=O)=O)sc3n2)cc1	<0.6	> 16 mg/kg		
Br.Cc1nc2sc(S(N)(=O)=O)nn2c1C	0.6	12 mg/kg		
NS(=O)(=O)c1nn2c(-c3ccccc3)cnc2s1	0.4	> 16 mg/kg		
Br.Cc1cn2nc(S(N)(=O)=O)sc2n1	2.2	5 mg/kg		
